Reference: US20150315202A1, “CHLORIN DERIVATIVE USEFUL IN PHOTODYNAMIC THERAPY AND DIAGNOSIS” (RMW CHO GROUP LIMITED, priority 2012, published 2015)
Entries after “also recorded” stand apart in the source; their conditions may differ. Read-outs that look alike come from different tables or passages of the source.

Assays:
[1] = treatment of various human ailments; cited from earlier work
[2] = air-saturated water and ethanol; literature value of the reference; cited from earlier work
[3] = literature value of the reference, cited from earlier work
[4] = test system: TAA- or CCl4-induced acute liver injuries; details: mice; cited from earlier work
[5] = test system: indomethacin-induced gastric lesions; details: rats; cited from earlier work
S180 sarcoma = experiment: Photodynamic therapy study with mice with subcutaneous S180 sarcoma; assay type: in vivo, Kunming mice; details: for Pathological changes of tumour tissues (HE staining): 24 hours after the treatment; for Living tumour cells versus control group D (FCM) / Proportions of apoptotic and necrotic tumour cells versus control group D (FCM): 24 hours after treatments; for Mean tumour volume versus control group D: 21 days after the treatments, P<0.05; for Tumour appearance after treatment (eschars): after treatments; for Sizes of tumours versus control group D: six days after the treatments; for Tumour inhibition rate: tail vein: Duteroporphyrin 10 mg/kg, chlorin e4 sodium 20 mg/kg, 5-ALA 100 mg/kg, laser 20 minutes, 180 J/cm^2
Method: In this experiment the effects of photodynamic therapy mediated by three different photosensitizers, namely Duteroporphyrin, chlorin e4 sodium and 5-ALA, on mouse S180 sarcoma were observed. Duteroporphyrin and 5-ALA are porphyrin derivatives.
40 Kunming mice with well grown subcutaneous S180 sarcoma were randomly divided into four groups: (A) Duteroporphyrin group (10 mg/kg), (B) chlorin e4 sodium group (20 mg/kg), (C) 5-ALA group (100 mg/kg) and (D) blank control group. The mice in groups A and B were subjected to irradiation 8-10 hours after tail vein injection of the photo sensitizers, while the mice in group C were subjected to irradiation 3 hours after tail vein injection of the photosensitizer. A laser with a wavelength of 630 nm was used for groups A and C, while a duel-frequency laser with wavelengths of 660 nm and 760 nm was used for group B. The local tumour sites were irradiated vertically, with the diameter of the laser spots being 1.2-1.5 cm. The whole tumour and 3-5 mm of normal tissue around the tumour were covered by the laser. The lasers were applied to groups A, B and C for 20 minutes, with a power density of 150 mW/cm^2 and an energy density of 180 J/cm^2. The mice in control group D were not subjected to irradiation.

[6] = test system: advanced non-small cell lung cancer; experiment: Clinical study with patients suffering from advanced non-small cell lung cancer; assay type: in vivo, human
Method: Through pathology or cytology diagnosis, 66 advanced non-small cell lung cancer patients were selected and randomly divided into two groups. Group A had 32 patients who were treated with chlorin e4 sodium. Group B had 34 patients who were treated with both chemotherapy and radiotherapy.
For group A, chlorin e4 sodium was administered at a dosage of 2 mg per kilogram of body weight, with two thirds administered by inhalation and one third administered orally. After the irradiation target(s) had been determined, an optical fibre for laser treatment purposes was guided into the lung tumor(s) via an interstitial procedure. Irradiation light intensity was 200 J/cm^2, irradiation power was 1,000 mW, and irradiation lasted for eight to ten minutes. Laser irradiation into the tumor was two to five centimeters in depth. Irradiation was either performed phase by phase (sub-paragraph treatment) based on tumor size or performed repeatedly.
For group B, for the radiotherapy, a 15 MV X-ray radiation therapy irradiation field covered primary lung tumor lesion(s) and mediastinal lymphatic drainage area, with a dosage of 65-70 Gy, administered on every first day in a week of radiotherapy. For the chemotherapy, 20 mg cisplatin was administered by intravenous application.

[7] = group A (32 patients): chlorin e4 sodium 2 mg/kg inhalation and oral + interstitial laser, group B (34 patients): cisplatin 20 mg iv + radiotherapy

Molecule | Pathological changes of tumour tissues (HE staining) (S180 sarcoma) | Living tumour cells versus control group D (FCM) (S180 sarcoma) | Proportions of apoptotic and necrotic tumour cells versus control group D (FCM) (S180 sarcoma) | Mean tumour volume versus control group D (S180 sarcoma) | Tumour appearance after treatment (eschars) (S180 sarcoma) | Sizes of tumours versus control group D (S180 sarcoma) | Tumour inhibition rate (S180 sarcoma) [%] | further results
tri-sodium copper(II) chlorin e6 | – | – | – | – | – | – | – | Toxicity and side effects [1]: no evidence of toxicity, skin sensitization or other serious side effects
O=S(=O)(O)c1ccc(-c2c3nc(c(-c4ccc(S(=O)(=O)O)cc4)c4ccc([nH]4)c(-c4ccc(S(=O)(=O)O)cc4)c4nc(c(-c5ccc(S(=O)(=O)O)cc5)c5ccc2[nH]5)C=C4)C=C3)cc1 [TPPS, m-tetrakis(p-sulfonatophenyl)porphine] | – | – | – | – | – | – | – | Fluorescence quantum yield [2]: 0.08; Quantum yield of singlet oxygen photogeneration ([3]; ethanol and detergent containing water): 0.7; Quantum yield of singlet oxygen photogeneration ([3]; water): 0.6
C=Cc1c(C)c2cc3nc(c(C)c4[nH]c(cc5nc(cc1[nH]2)C(C)=C5CC)c(C)c4C(=O)O)[C@@H](CCC(=O)O)[C@@H]3C [chlorin e4] | – | – | – | – | – | – | – | Effect against TAA- or CCl4-induced acute liver injuries [4]: protective effect; Effect against indomethacin-induced gastric lesions [5]: protective effect
NCC(=O)CCC(=O)O [5-ALA] | a wide range of tumour necrosis, tumour vascular disruption and neutrophil infiltration | obviously fewer | a lot higher | statistically significantly smaller | thinner and brownish red in colour | no obvious difference | 37.2 | Recovery of skins and fur (S180 sarcoma; after the eschars had fallen off): fully recovered; also recorded: fastest in skin repairing
CC1=Cc2cc3[nH]c(cc4nc(cc5[nH]c(cc1n2)cc5C)C(C)=C4CCC(=O)O)c(CCC(=O)O)c3C [Duteroporphyrin] | a wide range of tumour necrosis, tumour vascular disruption and neutrophil infiltration | obviously fewer | a lot higher | statistically significantly smaller | Black eschars | no obvious difference | 62.5 | Recovery of skins and fur (S180 sarcoma; mouse, in vivo): fully recovered
N.N.[Cl][Pt][Cl] [cisplatin, reference compound] | – | – | – | – | – | – | – | One year survival rate [6, 7]: 70.60%; Two years survival rate [6, 7]: 32.35%; Combined complete and partial remission rate ([6]; group A: chlorin e4 sodium 2 mg/kg + interstitial laser, group B: cisplatin 20 mg iv + radiotherapy): 21.30%
